Reference: patent publication US11999739B2, “Antimicrobials methods of making and using the same” (BIOVERSYS AG, priority 2016, dated 2024)

Columns and labels:
[1] = tested on: Staphylococcus aureus (S. aureus) 11540 strain; experiment: Standard microdilution MIC assay, S. aureus; format: cell-based
In short: (§1)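 Broth microdilution per CLSI M7-A8 guidelines, with reference-strain quality control run in the same design; MIC determined per strain. Activity scored +/− against a 16 micrograms/mL cutoff.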

[2] = tested on: Escherichia coli strain ATCC25922; experiment: Standard microdilution MIC assay, E. coli; format: cell-based
In short: as §1

SMILES | MIC [1] [µg/mL] | MIC [2] [µg/mL]
COC[C@H](N)CCCc1cc(Cl)c(F)c(-c2cc3cn(-c4ccc([C@@H]5CCC[C@@H](CCNC(C)=N)N5)c(F)c4)c(=O)nc3[nH]2)c1 [Compound 171] | ≤ 16 | ≤ 16
CC(=N)NCC[C@@H]1CCC[C@@H](c2ccc(-n3cc4cc(-c5cc(CCC[C@H](C)N)cc(C(F)(F)F)c5)[nH]c4nc3=O)cc2)N1 [Compound 172] | ≤ 16 | ≤ 16
C=C[C@H](N)CCCc1cc(Cl)c(F)c(-c2cc3cn(-c4ccc([C@@H]5CCC[C@@H](CCNC(C)=N)N5)c(F)c4)c(=O)nc3[nH]2)c1 [Compound 173] | ≤ 16 | ≤ 16
C=C[C@H](N)CCCc1cc(Cl)c(F)c(-c2cc3cn(-c4ccc([C@H](C)N[C@@H](CO)CCNC(C)=N)c(F)c4)c(=O)nc3[nH]2)c1 [Compound 174] | ≤ 16 | ≤ 16
CC(=N)NCC[C@@H]1CCC[C@@H](c2ccc(-n3cc4cc(-c5cc(CCC[C@H](C)N)cc(Cl)c5F)[nH]c4nc3=O)cc2Cl)N1 [Compound 175] | ≤ 16 | ≤ 16
CC(=N)NCC[C@@H]1CCC[C@@H](c2ccc(-n3cc4cc(-c5cc(CCC[C@@H](N)CF)cc(Cl)c5F)[nH]c4nc3=O)cc2Cl)N1 [Compound 176] | ≤ 16 | ≤ 16
CC(=N)NCC[C@H](CO)N[C@@H](C)c1ccc(-n2cc3cc(-c4cc(CCC[C@H](C)N)cc(Cl)c4F)[nH]c3nc2=O)cc1F [Compound 177] | ≤ 16 | ≤ 16
CC(=N)NCC[C@H](CO)N[C@@H](C)c1ccc(-n2cc3cc(-c4cc(CCC[C@@H](N)CF)cc(Cl)c4F)[nH]c3nc2=O)cc1F [Compound 178] | ≤ 16 | ≤ 16
C=C[C@H](NCCCNC(C)=N)c1ccc(-n2cc3cc(-c4cc(CCC[C@@H](N)CF)cc(Cl)c4F)[nH]c3nc2=O)cc1 [Compound 179] | ≤ 16 | ≤ 16
C=CCN(CC[C@@H]1CCC[C@@H](c2ccc(-n3cc4cc(-c5cc(CCC[C@H](C)N)cc(Cl)c5F)[nH]c4nc3=O)cc2)N1C)C(C)=N [Compound 180] | ≤ 16 | ≤ 16
C=CCN(CC[C@@H]1CCC[C@@H](c2ccc(-n3cc4cc(-c5cc(CCC[C@@H](N)CF)cc(Cl)c5F)[nH]c4nc3=O)cc2)N1C)C(C)=N [Compound 181] | ≤ 16 | ≤ 16
C=C[C@@H](CCNC(C)=N)N[C@@H](C)c1ccc(-n2cc3cc(-c4cc(CCC[C@H](C)N)cc(Cl)c4F)[nH]c3nc2=O)cc1F [Compound 183] | ≤ 16 | ≤ 16
C=C[C@H](N)CCCc1cc(Cl)c(F)c(-c2cc3cn(-c4ccc([C@H](C)N[C@@H](C=C)CCNC(C)=N)c(F)c4)c(=O)nc3[nH]2)c1 [Compound 184] | ≤ 16 | ≤ 16
C=C[C@H](N)CCCc1cc(Cl)c(F)c(-c2cc3cn(-c4ccc([C@@H]5CCC[C@@H](CCNC(=N)C(Cl)(Cl)Cl)N5)c(F)c4)c(=O)nc3[nH]2)c1 [Compound 185] | ≤ 16 | ≤ 16
C=C[C@@H](CCNC(C)=N)N[C@@H](C)c1ccc(-n2cc3cc(-c4cc(CCC[C@@H](N)CF)cc(Cl)c4F)[nH]c3nc2=O)cc1F [Compound 186] | ≤ 16 | ≤ 16
C=C[C@@H](CCNC(C)=N)NCc1ccc(-n2cc3cc(-c4cc(CCC[C@@H](N)COC)cc(Cl)c4F)[nH]c3nc2=O)cc1 [Compound 187] | ≤ 16 | ≤ 16
COC[C@@H](CCNC(C)=N)NCc1ccc(-n2cc3cc(-c4cc(CCC[C@@H](N)CF)cc(Cl)c4F)[nH]c3nc2=O)cc1 [Compound 188] | ≤ 16 | ≤ 16
COC[C@@H](CCNC(C)=N)NCc1ccc(-n2cc3cc(-c4cc(CCC[C@H](C)N)cc(Cl)c4F)[nH]c3nc2=O)cc1 [Compound 189] | ≤ 16 | ≤ 16
CC(=N)NCC[C@@H]1CCC[C@@H](c2ccc(-n3cc4cc(-c5cc(CCC[C@H](C)N)cc(Cl)c5F)[nH]c4nc3=O)cn2)N1 [Compound 192] | ≤ 16 | ≤ 16
CC(=N)NCC[C@@H]1CCC[C@@H](c2ccc(-n3cc4cc(-c5cc(CCC[C@@H](N)CF)cc(C(F)(F)F)c5F)[nH]c4nc3=O)cc2)N1 [Compound 193] | ≤ 16 | ≤ 16
COC[C@H](N)CCCc1cc(-c2cc3cn(-c4ccc([C@@H]5CCC[C@@H](CCNC(C)=N)N5)c(OC)c4)c(=O)nc3[nH]2)c(F)c(C(F)(F)F)c1 [Compound 194] | ≤ 16 | ≤ 16
COC[C@H](N)CCCc1cc(OC(F)(F)F)c(F)c(-c2cc3cn(-c4ccc([C@@H]5CCC[C@@H](CCNC(C)=N)N5)cc4)c(=O)nc3[nH]2)c1 [Compound 195] | ≤ 16 | ≤ 16
COC[C@H](N)CCCc1cc(OC(F)(F)F)c(F)c(-c2cc3cn(-c4ccc([C@@H]5CCC[C@@H](CCNC(C)=N)N5)c(OC)c4)c(=O)nc3[nH]2)c1 [Compound 197] | ≤ 16 | ≤ 16
COC[C@H](N)CCCc1cc(OC(F)(F)F)c(F)c(-c2cc3cn(-c4ccc([C@@H]5CCC[C@@H](CCNC(C)=N)N5)c(SC)c4)c(=O)nc3[nH]2)c1 [Compound 198] | ≤ 16 | ≤ 16
COC[C@H](N)CCCc1cc(-c2cc3cn(-c4ccc([C@@H]5CCC[C@@H](CCNC(C)=N)N5)c(F)c4)c(=O)nc3[nH]2)cc(C(F)(F)F)c1 [Compound 201] | ≤ 16 | ≤ 16
COC[C@H](N)CCCc1cc(-c2cc3cn(-c4ccc([C@@H]5CCC[C@@H](CCNC(C)=N)N5)c(SC)c4)c(=O)nc3[nH]2)cc(C(F)(F)F)c1 [Compound 202] | ≤ 16 | ≤ 16
CSc1cc(-n2cc3cc(-c4cc(CCC[C@@H](N)CF)cc(C(F)(F)F)c4)[nH]c3nc2=O)ccc1[C@@H]1CCC[C@@H](CCNC(C)=N)N1 [Compound 203] | ≤ 16 | ≤ 16
CC(=N)NCC[C@@H]1CCC[C@@H](c2ccc(-n3cc4cc(-c5cc(CCC[C@@H](N)CF)cc(C(F)(F)F)c5)[nH]c4nc3=O)cc2)N1 [Compound 204] | ≤ 16 | ≤ 16
CC(=N)NCC[C@@H]1CCC[C@@H](c2ccc(-n3cc4cc(-c5cc(CCC[C@@H](N)CF)cc(C(F)(F)F)c5)[nH]c4nc3=O)cc2F)N1 [Compound 205] | ≤ 16 | ≤ 16

Continued, values first:

MIC [1] [µg/mL] | MIC [2] [µg/mL] | SMILES
≤ 16 | ≤ 16 | CC(=N)NCC[C@@H]1CCC[C@@H](c2ccc(-n3cc4cc(-c5cc(CCC[C@@H](N)C6CC6)cc(C(F)(F)F)c5)[nH]c4nc3=O)cc2)N1 [Compound 206]
≤ 16 | ≤ 16 | CC(=N)NCC[C@@H]1CCC[C@@H](c2ccc(-n3cc4cc(-c5cc(CCC[C@@H](N)C6CC6)cc(OC(F)(F)F)c5F)[nH]c4nc3=O)cc2)N1 [Compound 207]
≤ 16 | ≤ 16 | CC(=N)NCC[C@@H]1CCC[C@@H](c2ccc(-n3cc4cc(-c5cc(CCC[C@@H](N)C6CC6)cc(OC(F)(F)F)c5F)[nH]c4nc3=O)cc2F)N1 [Compound 208]
≤ 16 | ≤ 16 | COc1cc(-n2cc3cc(-c4cc(CCC[C@@H](N)CF)cc(C(F)(F)F)c4)[nH]c3nc2=O)ccc1[C@@H]1CCC[C@@H](CCNC(C)=N)N1 [Compound 209]
≤ 16 | ≤ 16 | COC[C@H](N)CCCc1cc(-c2cc3cn(-c4ccc([C@@H]5CCC[C@@H](CCNC(C)=N)N5)c(OC)c4)c(=O)nc3[nH]2)cc(C(F)(F)F)c1 [Compound 210]
≤ 16 | ≤ 16 | CC(=N)NCC[C@@H]1CCC[C@@H](c2ccc(-n3cc4cc(-c5cc(CCC[C@@H](N)C6CC6)cc(C(F)(F)F)c5)[nH]c4nc3=O)cc2F)N1 [Compound 211]
≤ 16 | ≤ 16 | CC(=N)NCC[C@@H]1CCC[C@@H](c2ccc(-n3cc4cc(-c5cc(CCC[C@@H](N)C6CC6)cc(C(F)(F)F)c5F)[nH]c4nc3=O)cc2)N1 [Compound 212]
≤ 16 | ≤ 16 | CC(=N)NCC[C@@H]1CCC[C@@H](c2ccc(-n3cc4cc(-c5cc(CCC[C@@H](N)C6CC6)cc(OC(F)(F)F)c5F)[nH]c4nc3=O)cc2OC(F)(F)F)N1 [Compound 213]
≤ 16 | ≤ 16 | COC[C@H](N)CCCc1cc(-c2cc3cn(-c4ccc([C@@H]5CCC[C@@H](CCNC(C)=N)N5)c(OC(F)(F)F)c4)c(=O)nc3[nH]2)cc(C(F)(F)F)c1 [Compound 214]
≤ 16 | ≤ 16 | CC(=N)NCC[C@@H]1CCC[C@@H](c2ccc(-n3cc4cc(-c5cc(CCC[C@@H](N)CF)cc(C(F)(F)F)c5)[nH]c4nc3=O)cc2OC(F)(F)F)N1 [Compound 215]
≤ 16 | ≤ 16 | COC[C@H](N)CCCc1cc(-c2cc3cn(-c4ccc([C@@H]5CCC[C@@H](CCNC(C)=N)N5)c(OC(F)(F)F)c4)c(=O)nc3[nH]2)c(F)c(C(F)(F)F)c1 [Compound 216]
≤ 16 | ≤ 16 | CC(=N)NCC[C@@H]1CCC[C@@H](c2ccc(-n3cc4cc(-c5cc(CCC[C@@H](N)C6CC6)cc(C(F)(F)F)c5)[nH]c4nc3=O)cc2OC(F)(F)F)N1 [Compound 217]
≤ 16 | ≤ 16 | CC(=N)NCC[C@@H](NCc1ccc(-n2cc3cc(-c4cc(CCC[C@@H](N)CF)cc(Cl)c4F)[nH]c3nc2=O)cc1)C1CC1 [Compound 218]
≤ 16 | ≤ 16 | CC(=N)NCC[C@@H](NCc1ccc(-n2cc3cc(-c4cc(CCC[C@@H](N)C5CC5)cc(Cl)c4F)[nH]c3nc2=O)cc1)C1CC1 [Compound 219]
≤ 16 | ≤ 16 | C=C[C@H](N)CCCc1cc(Cl)c(F)c(-c2cc3cn(-c4ccc(CN[C@H](CCNC(C)=N)C5CC5)cc4)c(=O)nc3[nH]2)c1 [Compound 220]
≤ 16 | ≤ 16 | CC(=N)NCC[C@@H]1CCC[C@@H](c2ccc(-n3cc4cc(-c5cc(CCC[C@@H](N)CF)cc(C(F)(F)F)c5F)[nH]c4nc3=O)cc2F)N1 [Compound 221]
≤ 16 | ≤ 16 | COC[C@H](N)CCCc1cc(-c2cc3cn(-c4ccc(CN[C@H](CCNC(C)=N)C5CC5)cc4)c(=O)nc3[nH]2)cc(C(F)(F)F)c1 [Compound 222]
≤ 16 | ≤ 16 | COC[C@H](N)CCCc1cc(OC(F)(F)F)c(F)c(-c2cc3cn(-c4ccc(CN[C@H](CCNC(C)=N)C5CC5)cc4)c(=O)nc3[nH]2)c1 [Compound 223]
